The source of these data is patent US7060277B2 (priority 1996, dated 2006).

Values joined by “and” are separate entries in the source; they are usually repeats but may differ in a detail not shown here. Equal values may be shown once.

This test relates to lethal dose of SEB in D-galactosamine-treated mouse model. Further details: species or system BALB/c mice. The note with it: in vivo.

For “lcT N K K K V T A Q E L D [pSEBLC(150–161)]”, the “Percent Survival” value is 29% and 22%.
